Where no end group is shown, it is not given here.
How the values were obtained:
Y14Y15AA-CCR5 = experiment: BRET CAMYEL Gαi signaling via Y14Y15AA-CCR5; assay type: cell-based, human; conditions: CHO cells, n = 3
Experimental: BRET measurements of Gαi signaling and β-arrestin recruitment: Cells were seeded in 6-well plates (500,000 cells/well) and transiently transfected the following day. For BRET measurements of Gαi signaling, cells were transfected with vectors encoding the human chemokine receptors as indicated (160 ng/well) and the CAMYEL sensor (cAMP sensor, YFP-Epac-RLuc) (840 ng/well) using Lipofectamine (6 µL/well). Briefly, DNA was dissolved in 125 µL OPTI-MEM and Lipofectamine was dissolved in 125 µL OPTI-MEM. The DNA and Lipofectamine solutions were combined into a transfection mixture. The transfection mixture was added dropwise to cells incubated in OPTI-MEM (1 mL/well). Transfections were terminated after 5 h by adding 1 mL of fresh culture medium on top of the OPTI-MEM. The following day the cells were loosened from the plates in PBS with 5 mM glucose and subsequently aliquoted in white 96-well iso plates (~25,000 cells/well). […] The BRET signal is determined as the ratio eYFP (530 nm)/Rluc (480 nm).
BRET principle with CAMYEL: For quantification of signaling initiated immediately downstream of receptor activation, we used the cAMP binding CAMYEL sensor to perform bioluminescence resonance energy transfer (BRET) based assays. […] The BRET ratio is determined as the ratio between YFP/Rluc, and an increase in BRET ratio indicates a decrease in cAMP and thus increased chemokine receptor activation. […]

CCR1 = target: T1, CCR1 (Homo sapiens, UniProt P32246); experiment: BRET CAMYEL cAMP sensor assay of ligand-induced Gαi signaling via CCR1; assay type: cell-based; conditions: n = 3
T1 construct: expressed in transfected cells; host or cells: CHO-K1, CHO-pgsB618 (GAG-minus), HEK293 WT / DeltaSia / sC
T1 sequence (P32246 1-355): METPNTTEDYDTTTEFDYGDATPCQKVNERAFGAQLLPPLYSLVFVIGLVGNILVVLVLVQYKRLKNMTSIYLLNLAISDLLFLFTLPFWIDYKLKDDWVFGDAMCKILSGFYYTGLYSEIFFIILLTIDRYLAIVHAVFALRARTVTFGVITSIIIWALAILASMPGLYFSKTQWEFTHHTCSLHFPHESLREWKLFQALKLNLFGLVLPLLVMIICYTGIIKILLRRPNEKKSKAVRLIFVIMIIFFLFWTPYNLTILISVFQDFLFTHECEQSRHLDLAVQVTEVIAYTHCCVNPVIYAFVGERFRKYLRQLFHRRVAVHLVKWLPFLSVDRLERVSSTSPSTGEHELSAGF
Experimental: For quantification of signaling initiated immediate downstream of receptor activation, we used the cAMP binding CAMYEL sensor to perform bioluminescence resonance energy transfer (BRET)-based assays. Shortly, in this assay increased receptor activation leads to an increase in BRET ratio. For detailed information see the Materials and Methods section.
In signaling assays testing the boosting ability of basic peptides, transfected cells were aliquoted into 96-well plates in the presence of 10 µM peptide or PBS vehicle. After R-Luc substrate addition, chemokines were added to reach final concentrations ranging from 0–100 nM (0, 0.1, 1, 10, and 100 nM) and forskolin was applied before reading emission at 475 and 525 nm.
BRET measurements of Gαi signaling and β-arrestin recruitment: Cells were seeded in 6-well plates (500,000 cells/well) and transiently transfected the following day. For BRET measurements of Gαi signaling, cells were transfected with vectors encoding the human chemokine receptors as indicated (160 ng/well) and the CAMYEL sensor (cAMP sensor, YFP-Epac-RLuc) (840 ng/well) using Lipofectamine (6 µL/well). Briefly, DNA was dissolved in 125 µL OPTI-MEM and Lipofectamine was dissolved in 125 µL OPTI-MEM. The DNA and Lipofectamine solutions were combined into a transfection mixture. The transfection mixture was added dropwise to cells incubated in OPTI-MEM (1 mL/well). Transfections were terminated after 5 h by adding 1 mL of fresh culture medium on top of the OPTI-MEM. The following day the cells were loosened from the plates in PBS with 5 mM glucose and subsequently aliquoted in white 96-well iso plates (~25,000 cells/well). When using C21TP variants and defense peptides (hBD2 and histatin), these were added to a final concentration of 10 μM/well, while an equal amount of PBS was added to control cells. The bioluminescence substrate coelenterazine was added to a final conc. of 5 µM. After 10 min, varying ligand concentrations were added. For BRET measurements of Gαi signaling, forskolin was added 5 min after the addition of the ligand, to a final conc. of 5 µM. The plates were kept in the dark at all times. A Perkin Elmer Envision machine was used for measuring the emission signals at 530 and 480 nm. The BRET signal is determined as the ratio eYFP (530 nm)/Rluc (480 nm).
BRET principle with CAMYEL: For quantification of signaling initiated immediately downstream of receptor activation, we used the cAMP binding CAMYEL sensor to perform bioluminescence resonance energy transfer (BRET) based assays. In this assay we measure changes in intracellular cAMP levels in response to receptor activation. Activation of chemokine receptors lead to a decrease in cAMP through inhibition of adenylate cyclase (AC). In the current setup we initially add forskolin that stimulates AC directly to induce an increase in intracellular cAMP, and we then measure the ability of a ligand (chemokine) to counteract the forskolin-induced increase in cAMP. The cAMP sensor (CAMYEL cAMP sensor, YFP-Epac-RLuc) carries the donor Renilla luciferase (Rluc) and the acceptor YFP. Coelenterazine is a substrate for Rluc that will emit light at around 475 nm upon enzymatic cleavage catalyzed by Rluc. When Rluc and YFP are in close proximity, the energy from the emitted light from coelenterazine can be transferred to YFP, resulting in an excitation of YFP, leading to a BRET signal around 525 nm. EPAC is a cAMP binding protein that changes conformation upon cAMP binding. During low cAMP concentrations, Rluc and YFP are near each other, and a strong BRET signal at 525 nm is obtained. When cAMP levels increase, cAMP will bind to EPAC, creating a conformational change, separating Rluc and YFP, reducing the BRET ratio, and increasing the emission from Rluc at 475 nm. Thus, by measuring the ratio between the cAMP-bound (475 nm) and the cAMP-free (525 nm) state of CAMYEL we obtain a measure of receptor activation. […]

[1] = CHO-K1 cells, 10 µM peptide, chemokine 0-100 nM
[2] = HEK293 WT, DeltaSia and sC cells, 10 µM peptide

Substance: CCL5: human chemokine from Peprotech, overall basic
- Gαi signaling via Y14Y15AA-CCR5 compared to WT-CCR5 (Y14Y15AA-CCR5): completely abolished
- LogEC50 of CCL5-induced Gαi signaling via CCR1 (CCR1; CHO GAG-minus cells (CHO-pgsB618)): −9.42 ± 0.131
- LogEC50 of CCL5-induced Gαi signaling via CCR1 (CCR1; CHO GAG-plus (WT CHO-K1) cells): −8.89 ± 0.133
- Gαi signaling via CCR1 in DeltaSia and sC cells (CCR1; HEK293 DeltaSia and sC, CCL5 oligomerization variants experiment): remains high
- Gαi signaling via CCR1 in DeltaSia and sC cells compared to WT cells (CCR1; HEK293 DeltaSia and sC): persists in DeltaSia and sC to almost the same high level as observed in WT cells

Substance: RKDRGASKTGKKGKGSKGCKRTERSQTPKGP [C21TP^81-111]
- boosting of CCL5 signaling via Y1415AA receptor variant (Y14Y15AA-CCR5; 10 µM peptide): maintained
- boosting of CCL5 signaling via CCR1 in GAG-plus and GAG-minus cells (CCR1; CHO GAG-plus and CHO GAG-minus (CHO-pgsB618) cells, 10 µM peptide): boosted
- boosting of CCL5-induced Gαi signaling via CCR1 (CCR1; [1]): boosted
- boosting of CCL7-induced Gαi signaling via CCR1 (CCR1; [1]): boosted
- effect on CCL3-induced Gαi signaling via CCR1 (CCR1; [1]): not affected
- boosting of signaling by CCL5, E26A and E66A via CCR1 (CCR1; HEK293 DeltaSia cells, 10 µM peptide): tendency for boosting
- boosting of signaling by CCL5, E26A and E66A via CCR1 (CCR1; HEK293 WT cells, 10 µM peptide): boosting occurs with all three versions of CCL5
- boosting of CCL3 signaling via CCR1 (CCR1; [2]): not boosted
- boosting of CCL5 signaling via CCR1 (CCR1; [2]): preserved across all three cell lines
- boosting of CCL7 signaling via CCR1 (CCR1; [2]): persists
- boosting of signaling by CCL5, E26A and E66A via CCR1 (CCR1; HEK293 sC cells, 10 µM peptide): significant boosting
